In patent publication US20150018384A1, “TREATMENT FOR HIGH CHOLESTEROL” (FibroGen, Inc., priority 2012, published 2015):

Tests used:
healthy human subjects = conditions: 0.15 mg/kg or […] weekly for 4 weeks
Procedure: Placebo was administered in the same regimen as a control (n=2 or n=1). Fasting blood samples for cholesterol analysis were collected from subjects in the morning on the day of dosing before compound or placebo was administered.

cynomolgus monkeys [1] = assay: Cholesterol levels after repeated oral administration in monkey toxicity studies; format: in vivo, cynomolgus monkey; conditions: 28-Day study, daily oral dosing 1, 10 and 30 mg/kg, day 14 and 29
Procedure: During these studies monkeys were fasted prior to each blood collection. Plasma samples were then evaluated at pre-dose and at different time-points for levels of total cholesterol.

cynomolgus monkeys [2] = assay: Lipid panel in monkeys after single IV or PO dose; format: in vivo, cynomolgus monkey; conditions: 30 mg/kg IV or PO (3 each, 6 monkeys), 24 hrs post-dose, ±SD
Procedure: The same monkeys were administered the test compounds in sequence with a washout period between administration of each compound. Monkeys were fasted overnight prior to dosing and food was withheld during the first 4 hours after dosing and food was then allowed. Blood samples were collected at baseline prior to dosing, 4, 12, 24, 48 and 72 hrs after HIF-PHI administration. […] There were a total of 6 monkeys in each dose group, 3 that were dosed PO and 3 dosed IV.

[3] = system: Cholesterol Biosynthesis Genes in the Mouse Liver; assay: Microarray expression of cholesterol biosynthesis genes in mouse liver; format: in vivo; conditions: 10 mg/kg oral
Procedure: A number of PHI compounds were evaluated for their effect on the expression of cholesterol biosynthesis genes in mouse liver. […] Liver tissue was harvested and stored in RNALater (Life Technologies). Total RNA was isolated with Trizol (Life Technologies) and purified with RNEasy96 (Qiagen) according to the manufacturers' protocols. RNA concentration was measured by NanoDrop (Thermo), and quality was assessed by Bioanalyzer (Agilent).
Biotinylated microarray probe was prepared using the 3′IVT Express kit (Affymetrix) and hybridized to mouse 430A 2.0 arrays as recommended in the manufacturer's protocol. Arrays were stained, washed, and scanned using Affymetrix equipment and software. Three arrays were run for each treatment and time point, each representing the liver sample from one individual animal.
Animals were sacrificed 4 h or 8 h later. Each compound was tested in a separate animal study with separate controls. Liver tissue was harvested and stored in RNALater (Life Technologies). Total RNA was isolated with Trizol (Life Technologies) and purified with RNEasy96 (Qiagen) according to the manufacturers' protocols. RNA concentration was measured by NanoDrop (Thermo), and quality was assessed by Bioanalyzer (Agilent).
For microarray analysis, RNA from animals in each treatment group was pooled in pairs (n=3 pairs for 4 h vehicle, n=2 pairs for all other treatment groups, for a total of 13 arrays per compound study). This approach was used to improve the signal-to-noise ratio on microarrays. Biotinylated probe was prepared using the One-Cycle cDNA synthesis kit (Affymetrix) and hybridized to mouse 430A 2.0 arrays as recommended in the manufacturer's protocol. Arrays were stained, washed, and scanned using Affymetrix equipment and software.
Array quality was assessed with GeneChip Operating System and/or Command Console software (Affymetrix). CEL files were uploaded to GeneSpring 7.3.1 (Agilent) using GC-RMA baseline correction. Principal Components Analysis was used to identify and reject outlier arrays. Data are reported as fold-change compared to timepoint-matched vehicle controls from the same study. Values less than 1.0 indicate a reduction of RNA in the treated animal liver tissue.

DIO mice = assay: High cholesterol mouse model, diet induced obesity (DIO) mice
Description: Ten-week-old male apoE knockout mice (Jackson Laboratories, Bar Harbor, Me.) were fed a normal chow diet (0.02% cholesterol, 13.5% fat by weight; LabDiet). Ten-week-old male diet induced obese mice (DIO Mice, Jackson Laboratories, Bar Harbor, Me.) were fed a high fat diet (0.095% cholesterol, 60% fat by weight; ResearchDiets) starting at six-weeks-old. After 2 weeks of acclimatization, whole blood was collected for baseline measurement before administration of test reagents. All test reagents were administered orally by gavage needle three times a week for 2 weeks for the apoE mice, and three times a week for 4 weeks for the DIO mice. The animals were sacrificed at end of study. Whole blood was collected weekly in Heparin-tube by submandibular bleeding and isolated plasma was stored at −80° C. for measurement of total cholesterol.
DIO mice as described in Example 10 were used to test the effect of various compounds on cholesterol levels. Compound (60 mg/kg) or vehicle was administered to the mice (n=10/group) three times a week for four weeks. A statin compound (rosuvastatin) was also tested. Blood samples were collected at weekly and total cholesterol blood levels were tested.

ApoE deficient mice = assay: High cholesterol mouse model, ApoE deficient mice, 2 weeks; format: in vivo; conditions: Compound 60 mg/kg three times a week for two weeks, n=10/group, FIG. 22
Description: Ten-week-old male apoE knockout mice (Jackson Laboratories, Bar Harbor, Me.) were fed a normal chow diet (0.02% cholesterol, 13.5% fat by weight; LabDiet). […] After 2 weeks of acclimatization, whole blood was collected for baseline measurement before administration of test reagents. […] The animals were sacrificed at end of study.
ApoE deficient mice as described in Example 10 were used to test the effect of various compounds on cholesterol levels. […] A statin compound (rosuvastatin) was also tested. Blood samples were collected at the end of the study and total cholesterol blood levels were tested. A group of 10 mice was sacrificed at the beginning of the study for a baseline total cholesterol measurement. […] Typically statins show mixed results in this model and are not very effective to reduce cholesterol in mice (Bea et al. 2003 Atherosclerosis 167:187-194).

For `N#Cc1nc(C(=O)NCC(=O)O)c(O)c2c(Oc3ccc(Cl)cc3)cccc12` [Compound C], which “total cholesterol levels over the course of treatment” value (healthy human subjects) is on record?
Its value is “decreased”.

And the total cholesterol levels (cynomolgus monkeys [1])?
The total cholesterol levels was “dose-dependent decrease in cholesterol levels”.

And the total cholesterol levels (cynomolgus monkeys [1]; listed as compound C)?
Its total cholesterol levels is “dose dependent decrease in total cholesterol”.

What about the “Cholesterol change from baseline” value (cynomolgus monkeys [2]) of the same compound?
The value was -11.8 ± 4.9 mg/dL.

What about the “HDL change from baseline” value (cynomolgus monkeys [2]) of the same compound?
Its value is 0.5 ± 6.9 mg/dL.

What about the “TGs change from baseline” value (cynomolgus monkeys [2]) of the same compound?
Its value is -10 ± 21 mg/dL.

How did the “3-hydroxy-3-methylglutaryl-Coenzyme A reductase (Hmgcr) RNA expression” value ([3]; 4 h) turn out when `N#Cc1nc(C(=O)NCC(=O)O)c(O)c2ccn(Cc3ccccc3F)c12` [Compound G, {[7-Cyano-1-(2-fluoro-benzyl)-4-hydroxy-1H-pyrrolo[2,3-c]pyridine-5-carbonyl]-amino}-acetic acid] was run?
The value was 0.68 fold-change.

And the “3-hydroxy-3-methylglutaryl-Coenzyme A synthase 1 (Hmgcs1) RNA expression” value ([3]; 4 h)?
Its value is 1.29 fold-change.

What about the “7-dehydrocholesterol reductase (Dhcr7) RNA expression” value ([3]; 4 h) of the same compound?
Its value is 0.91 fold-change.

And the “NAD(P) dependent steroid dehydrogenase-like (Nsdhl) RNA expression” value ([3]; 4 h)?
The value was 1.46 fold-change.

What about the “acetyl-Coenzyme A acetyltransferase 2 (Acat2) RNA expression” value ([3]; 4 h) of the same compound?
The value was 1.18 fold-change.

And the “cytochrome P450, family 51 (Cyp51) RNA expression” value ([3]; 4 h)?
Its value is 1.00 fold-change.

What about the “farnesyl diphosphate farnesyl transferase 1 (Fdft1) RNA expression” value ([3]; 4 h) of the same compound?
Its value is 1.15 fold-change.

What about the “farnesyl diphosphate synthetase (Fdps) RNA expression” value ([3]; 4 h) of the same compound?
The value was 1.16 fold-change.

And the “isopentenyl-diphosphate delta isomerase (Idi1) RNA expression” value ([3]; 4 h)?
The value was 1.13 fold-change.

What about the “lanosterol synthase (Lss) RNA expression” value ([3]; 4 h) of the same compound?
The value was 1.22 fold-change.

What about the “mevalonate (diphospho) decarboxylase (Mvd) RNA expression” value ([3]; 4 h) of the same compound?
The value was 1.03 fold-change.

What about the “mevalonate kinase (Mvk) RNA expression” value ([3]; 4 h) of the same compound?
The value was 0.98 fold-change.

What about the “phosphomevalonate kinase (Pmvk) RNA expression” value ([3]; 4 h) of the same compound?
Its value is 0.95 fold-change.

And the “squalene epoxidase (Sqle) RNA expression” value ([3]; 4 h)?
Its value is 1.50 fold-change.

What about the “sterol-C4-methyl oxidase-like (Sc4mol) RNA expression” value ([3]; 4 h) of the same compound?
Its value is 0.87 fold-change.

And the “sterol-C5-desaturase (fungal ERG3, delta-5-desaturase) homolog (S. cerevisae) (Sc5d) RNA expression” value ([3]; 4 h)?
Its value is 0.70 fold-change.

And the “3-hydroxy-3-methylglutaryl-Coenzyme A reductase (Hmgcr) RNA expression” value ([3]; 8 h)?
The value was 0.66 fold-change.

What about the “3-hydroxy-3-methylglutaryl-Coenzyme A synthase 1 (Hmgcs1) RNA expression” value ([3]; 8 h) of the same compound?
The value was 0.82 fold-change.

And the “7-dehydrocholesterol reductase (Dhcr7) RNA expression” value ([3]; 8 h)?
The value was 1.07 fold-change.

What about the “NAD(P) dependent steroid dehydrogenase-like (Nsdhl) RNA expression” value ([3]; 8 h) of the same compound?
Its value is 1.00 fold-change.

And the “acetyl-Coenzyme A acetyltransferase 2 (Acat2) RNA expression” value ([3]; 8 h)?
Its value is 0.67 fold-change.

And the “cytochrome P450, family 51 (Cyp51) RNA expression” value ([3]; 8 h)?
Its value is 0.62 fold-change.

What about the “farnesyl diphosphate farnesyl transferase 1 (Fdft1) RNA expression” value ([3]; 8 h) of the same compound?
The value was 0.98 fold-change.

And the “farnesyl diphosphate synthetase (Fdps) RNA expression” value ([3]; 8 h)?
The value was 0.73 fold-change.

And the “isopentenyl-diphosphate delta isomerase (Idi1) RNA expression” value ([3]; 8 h)?
Its value is 0.94 fold-change.

And the “lanosterol synthase (Lss) RNA expression” value ([3]; 8 h)?
The value was 0.87 fold-change.

What about the “mevalonate (diphospho) decarboxylase (Mvd) RNA expression” value ([3]; 8 h) of the same compound?
The value was 1.03 fold-change.

And the “mevalonate kinase (Mvk) RNA expression” value ([3]; 8 h)?
The value was 0.89 fold-change.

And the “phosphomevalonate kinase (Pmvk) RNA expression” value ([3]; 8 h)?
Its value is 0.70 fold-change.

And the “squalene epoxidase (Sqle) RNA expression” value ([3]; 8 h)?
The value was 1.22 fold-change.

And the “sterol-C4-methyl oxidase-like (Sc4mol) RNA expression” value ([3]; 8 h)?
Its value is 0.58 fold-change.

What about the “sterol-C5-desaturase (fungal ERG3, delta-5-desaturase) homolog (S. cerevisae) (Sc5d) RNA expression” value ([3]; 8 h) of the same compound?
The value was 0.48 fold-change.

And the “body weights at the end of the study” value (DIO mice; 60 mg/kg three times a week for four weeks)?
Its value is “lower body weights”.

And the “Cholesterol change from baseline” value (cynomolgus monkeys [2])?
The value was -6.5 ± 10.4 mg/dL.

What about the “HDL change from baseline” value (cynomolgus monkeys [2]) of the same compound?
The value was 0.17 ± 5.4 mg/dL.

And the “LDL change from baseline” value (cynomolgus monkeys [2])?
Its value is -8.7 ± 5.9 mg/dL.

What about the “LDL/HDL ratio change from baseline” value (cynomolgus monkeys [2]) of the same compound?
The value was −0.13 ± 0.08.

And the “TGs change from baseline” value (cynomolgus monkeys [2])?
The value was -23 ± 8 mg/dL.

Which “percent change from baseline in total cholesterol at two weeks compared to vehicle treated” value (DIO mice; Compound 60 mg/kg three times a week, n=10/group, FIG. 23) does the source give for `CC(C)c1nc(N(C)S(C)(=O)=O)nc(-c2ccc(F)cc2)c1/C=C/[C@@H](O)C[C@@H](O)CC(=O)O` [rosuvastatin, reference compound] here?
Its value is “lower total cholesterol levels”.

And the “total cholesterol levels at the end of the study compared to baseline” value (ApoE deficient mice)?
Its value is “did not show a reduction in cholesterol”.
